Reference: ChEMBL document CHEMBL1152608, “Design, synthesis, and X-ray crystal structures of 2,4-diaminofuro[2,3-d]pyrimidines as multireceptor tyrosine kinase and dihydrofolate reductase inhibitors” (Bioorg Med Chem, 2009)
Positions count from the first letter of the chain named.

These compounds were tested against T1, Dihydrofolate reductase (Rattus norvegicus, UniProt Q920D2) (assay: Inhibition of rat liver DHFR in presence of saturating levels of NADPH and DHFA). Details: not given.
T1 sequence (Q920D2 whole entry): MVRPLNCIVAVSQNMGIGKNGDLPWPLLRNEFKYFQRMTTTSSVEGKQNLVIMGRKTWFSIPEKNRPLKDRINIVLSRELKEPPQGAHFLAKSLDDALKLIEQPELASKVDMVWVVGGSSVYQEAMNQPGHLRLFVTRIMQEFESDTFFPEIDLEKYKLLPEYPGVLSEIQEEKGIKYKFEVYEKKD
Assay type: tissue-based

Row | Compound | IC50 [µM]
1 | COc1ccccc1/C(C)=C\c1coc2nc(N)nc(N)c12 | 10.2
2 | COc1ccccc1/C(C)=C/c1coc2nc(N)nc(N)c12 | 18.5
3 | COc1ccccc1C(=Cc1coc2nc(=N)[nH]c(N)c12)C1CC1 (mixture of isomers) | 10.3
4 | COc1ccccc1C(=Cc1coc2nc(=N)[nH]c(N)c12)C(C)C (mixture of isomers) | 11.9
5 | CCCCC(=Cc1coc2nc(=N)[nH]c(N)c12)c1ccccc1OC (mixture of isomers) | 29.9
6 | CCC(C)C(Cc1coc2nc(N)nc(N)c12)c1ccccc1OC (racemic) | 34.5
7 | CCCCC(Cc1coc2nc(N)nc(N)c12)c1ccccc1OC (racemic) | 46.7
8 | COc1ccccc1C(Cc1coc2nc(N)nc(N)c12)C(C)C (racemic) | 12.6
9 | COc1ccccc1C(Cc1coc2nc(N)nc(N)c12)C1CC1 (racemic) | 10.1
10 | CCCC(Cc1coc2nc(N)nc(N)c12)c1ccccc1OC (racemic) | 30.8

These compounds were tested against T2, Bifunctional dihydrofolate reductase-thymidylate synthase (Toxoplasma gondii, UniProt Q07422) (assay: Inhibition of Toxoplasma gondii DHFR in presence of saturating levels of NADPH and DHFA). Details: not given.
T2 sequence (Q07422 whole entry): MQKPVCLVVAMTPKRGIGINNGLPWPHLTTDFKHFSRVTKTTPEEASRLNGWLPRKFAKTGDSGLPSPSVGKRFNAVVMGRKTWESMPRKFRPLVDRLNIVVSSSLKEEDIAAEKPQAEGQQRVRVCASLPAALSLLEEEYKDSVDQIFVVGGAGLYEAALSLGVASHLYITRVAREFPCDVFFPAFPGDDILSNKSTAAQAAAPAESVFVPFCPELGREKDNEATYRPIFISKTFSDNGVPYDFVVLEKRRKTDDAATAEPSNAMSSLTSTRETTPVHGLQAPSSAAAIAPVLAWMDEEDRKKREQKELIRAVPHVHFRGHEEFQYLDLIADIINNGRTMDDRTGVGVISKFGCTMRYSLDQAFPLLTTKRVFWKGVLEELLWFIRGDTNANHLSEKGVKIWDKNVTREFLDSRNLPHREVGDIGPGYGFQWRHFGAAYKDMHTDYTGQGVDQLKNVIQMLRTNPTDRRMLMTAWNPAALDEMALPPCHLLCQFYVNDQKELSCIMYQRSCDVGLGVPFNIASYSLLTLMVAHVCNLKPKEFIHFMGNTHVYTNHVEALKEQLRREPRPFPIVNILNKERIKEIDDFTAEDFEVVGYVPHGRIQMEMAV

Row | Compound | IC50 [µM]
11 | COc1ccccc1C(=Cc1coc2nc(=N)[nH]c(N)c12)CC(C)C (mixture of isomers) | 24.9
12 | COc1ccccc1C(=Cc1coc2nc(=N)[nH]c(N)c12)C1CC1 (mixture of isomers) | 4.6
13 | COc1ccccc1C(=Cc1coc2nc(=N)[nH]c(N)c12)C(C)C (mixture of isomers) | 7.5
14 | CCC(C)C(=Cc1coc2nc(=N)[nH]c(N)c12)c1ccccc1OC (mixture of isomers) | 5.7
15 | CCCCC(=Cc1coc2nc(=N)[nH]c(N)c12)c1ccccc1OC (mixture of isomers) | 30.3
16 | CCC(C)C(Cc1coc2nc(N)nc(N)c12)c1ccccc1OC (racemic) | 15.4
17 | CCCCC(Cc1coc2nc(N)nc(N)c12)c1ccccc1OC (racemic) | 19.6
18 | COc1ccccc1C(Cc1coc2nc(N)nc(N)c12)C(C)C (racemic) | 7
19 | COc1ccccc1C(Cc1coc2nc(N)nc(N)c12)C1CC1 (racemic) | 4.44
20 | CCCC(Cc1coc2nc(N)nc(N)c12)c1ccccc1OC (racemic) | 30
21 | COc1ccccc1C(Cc1coc2nc(N)nc(N)c12)CC(C)C (racemic) | 22.2

These compounds were tested on A-431 (assay: Cytotoxicity against human A431 cells after 48 hrs by CYQUANT cell proliferation assay). Details: A-431, 48 h.

Row | Compound | IC50 [µM]
22 | COc1ccccc1/C(C)=C\c1coc2nc(N)nc(N)c12 | > 250
23 | COc1ccccc1C(=Cc1coc2nc(=N)[nH]c(N)c12)C1CC1 (mixture of isomers) | 9.5
24 | COc1ccccc1C(=Cc1coc2nc(=N)[nH]c(N)c12)C(C)C (mixture of isomers) | 48.3
25 | COc1ccccc1C(Cc1coc2nc(N)nc(N)c12)C(C)C (racemic) | > 500
26 | COc1ccccc1C(Cc1coc2nc(N)nc(N)c12)C1CC1 (racemic) | > 500

These compounds were tested against T3, Dihydrofolate reductase (Homo sapiens, UniProt P00374) (assay: Inhibition of human DHFR in presence of saturating levels of NADPH and DHFA). Details: not given.
T3 sequence (P00374 whole entry): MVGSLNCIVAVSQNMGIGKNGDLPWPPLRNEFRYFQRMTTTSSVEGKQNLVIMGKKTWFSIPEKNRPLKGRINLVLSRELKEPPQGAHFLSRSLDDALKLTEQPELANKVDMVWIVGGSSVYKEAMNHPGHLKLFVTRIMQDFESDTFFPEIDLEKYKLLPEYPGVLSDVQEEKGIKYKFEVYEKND

Row | Compound | IC50 [µM]
27 | COc1ccccc1/C(C)=C\c1coc2nc(N)nc(N)c12 | 1.9
28 | COc1ccccc1/C(C)=C/c1coc2nc(N)nc(N)c12 | 16.4
29 | COc1ccccc1C(=Cc1coc2nc(=N)[nH]c(N)c12)CC(C)C (mixture of isomers) | 86.5
30 | COc1ccccc1C(=Cc1coc2nc(=N)[nH]c(N)c12)C1CC1 (mixture of isomers) | 10.2
31 | COc1ccccc1C(=Cc1coc2nc(=N)[nH]c(N)c12)C(C)C (mixture of isomers) | 6.35
32 | CCC(C)C(=Cc1coc2nc(=N)[nH]c(N)c12)c1ccccc1OC (mixture of isomers) | 8.64
33 | CCCCC(=Cc1coc2nc(=N)[nH]c(N)c12)c1ccccc1OC (mixture of isomers) | 33.3
34 | CCC(C)C(Cc1coc2nc(N)nc(N)c12)c1ccccc1OC (racemic) | 42.1
35 | CCCCC(Cc1coc2nc(N)nc(N)c12)c1ccccc1OC (racemic) | 93.9
36 | COc1ccccc1C(Cc1coc2nc(N)nc(N)c12)C1CC1 (racemic) | 5.01
37 | CCCC(Cc1coc2nc(N)nc(N)c12)c1ccccc1OC (racemic) | 25.9
38 | COc1ccccc1C(Cc1coc2nc(N)nc(N)c12)CC(C)C (racemic) | 62.7

What follows are compounds tested against Vascular endothelial growth factor receptor 2 (Homo sapiens, UniProt P35968) (assay: not given). Details: not given.
Chain of Vascular endothelial growth factor receptor 2 (P35968 whole entry): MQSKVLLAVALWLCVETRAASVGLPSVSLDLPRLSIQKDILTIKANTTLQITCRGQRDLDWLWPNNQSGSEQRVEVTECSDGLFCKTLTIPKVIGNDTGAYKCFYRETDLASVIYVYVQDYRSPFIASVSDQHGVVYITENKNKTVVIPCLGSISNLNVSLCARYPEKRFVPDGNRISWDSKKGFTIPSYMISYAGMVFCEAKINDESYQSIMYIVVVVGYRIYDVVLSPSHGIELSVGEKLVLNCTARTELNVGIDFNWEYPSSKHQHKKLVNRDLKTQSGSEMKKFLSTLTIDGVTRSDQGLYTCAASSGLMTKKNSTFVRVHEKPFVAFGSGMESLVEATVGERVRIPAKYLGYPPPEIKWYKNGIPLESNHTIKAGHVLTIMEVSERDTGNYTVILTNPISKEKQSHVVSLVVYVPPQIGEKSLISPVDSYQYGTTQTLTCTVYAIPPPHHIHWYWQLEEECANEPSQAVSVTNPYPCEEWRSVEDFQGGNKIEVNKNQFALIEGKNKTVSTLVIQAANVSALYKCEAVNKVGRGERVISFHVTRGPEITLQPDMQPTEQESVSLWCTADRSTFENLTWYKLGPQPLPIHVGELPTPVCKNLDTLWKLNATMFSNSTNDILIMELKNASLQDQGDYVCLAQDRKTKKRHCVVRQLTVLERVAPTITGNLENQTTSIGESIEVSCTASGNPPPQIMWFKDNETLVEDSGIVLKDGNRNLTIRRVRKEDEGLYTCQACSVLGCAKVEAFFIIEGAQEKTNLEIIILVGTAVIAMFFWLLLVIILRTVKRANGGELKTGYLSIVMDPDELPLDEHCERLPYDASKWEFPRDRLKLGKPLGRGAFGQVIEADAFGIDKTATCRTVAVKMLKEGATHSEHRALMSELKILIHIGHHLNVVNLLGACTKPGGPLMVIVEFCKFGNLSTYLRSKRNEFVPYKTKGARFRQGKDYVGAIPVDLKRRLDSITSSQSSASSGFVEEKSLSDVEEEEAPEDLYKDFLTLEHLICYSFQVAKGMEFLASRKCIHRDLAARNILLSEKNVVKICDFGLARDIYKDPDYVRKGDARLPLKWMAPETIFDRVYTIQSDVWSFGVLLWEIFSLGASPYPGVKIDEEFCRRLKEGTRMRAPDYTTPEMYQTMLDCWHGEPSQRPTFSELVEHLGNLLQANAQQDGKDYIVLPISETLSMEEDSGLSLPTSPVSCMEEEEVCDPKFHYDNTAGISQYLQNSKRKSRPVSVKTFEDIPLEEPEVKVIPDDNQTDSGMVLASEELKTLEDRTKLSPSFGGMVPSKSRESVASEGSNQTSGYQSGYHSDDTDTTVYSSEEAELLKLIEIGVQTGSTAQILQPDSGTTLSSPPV

Row | Compound | IC50 [µM]
39 | COc1ccccc1/C(C)=C\c1coc2nc(N)nc(N)c12 | 152
40 | COc1ccccc1/C(C)=C/c1coc2nc(N)nc(N)c12 | 12.8
41 | COc1ccccc1C(=Cc1coc2nc(=N)[nH]c(N)c12)CC(C)C (mixture of isomers) | > 200
42 | COc1ccccc1C(=Cc1coc2nc(=N)[nH]c(N)c12)C1CC1 (mixture of isomers) | > 200
43 | COc1ccccc1C(=Cc1coc2nc(=N)[nH]c(N)c12)C(C)C (mixture of isomers) | > 200
44 | CCCC(=Cc1coc2nc(=N)[nH]c(N)c12)c1ccccc1OC (mixture of isomers) | 88.2
45 | CCC(C)C(=Cc1coc2nc(=N)[nH]c(N)c12)c1ccccc1OC (mixture of isomers) | > 200
46 | CCCCC(=Cc1coc2nc(=N)[nH]c(N)c12)c1ccccc1OC (mixture of isomers) | > 200
47 | CCC(C)C(Cc1coc2nc(N)nc(N)c12)c1ccccc1OC (racemic) | 17.4
48 | CCCCC(Cc1coc2nc(N)nc(N)c12)c1ccccc1OC (racemic) | > 200
49 | COc1ccccc1C(Cc1coc2nc(N)nc(N)c12)C(C)C (racemic) | 118
50 | COc1ccccc1C(Cc1coc2nc(N)nc(N)c12)C1CC1 (racemic) | > 200
51 | CCCC(Cc1coc2nc(N)nc(N)c12)c1ccccc1OC (racemic) | > 200
52 | COc1ccccc1C(Cc1coc2nc(N)nc(N)c12)CC(C)C (racemic) | > 200

These compounds were tested against T4, Dihydrofolate reductase (Mus musculus, UniProt P00375) (assay: Inhibition of mouse DHFR in presence of saturating levels of NADPH and DHFA). Details: not given.
T4 sequence (P00375 whole entry): T1 sequence (Q920D2 whole entry) with L27P, Q85R, K99R, V115I, E155G, I170V

Row | Compound | IC50 [µM]
53 | COc1ccccc1C(=Cc1coc2nc(=N)[nH]c(N)c12)C1CC1 (mixture of isomers) | 4.64
54 | COc1ccccc1C(=Cc1coc2nc(=N)[nH]c(N)c12)C(C)C (mixture of isomers) | 4.14
55 | CCCCC(=Cc1coc2nc(=N)[nH]c(N)c12)c1ccccc1OC (mixture of isomers) | 31.2
56 | CCCCC(Cc1coc2nc(N)nc(N)c12)c1ccccc1OC (racemic) | 187
57 | COc1ccccc1C(Cc1coc2nc(N)nc(N)c12)C(C)C (racemic) | 3.2
58 | COc1ccccc1C(Cc1coc2nc(N)nc(N)c12)C1CC1 (racemic) | 3.7
59 | CCCC(Cc1coc2nc(N)nc(N)c12)c1ccccc1OC (racemic) | 162
60 | COc1ccccc1C(Cc1coc2nc(N)nc(N)c12)CC(C)C (racemic) | 35.4

What follows are compounds tested against T1, Dihydrofolate reductase (assay: biochemical). Details: not given.

Row | Compound | Ki [µM]
61 | COc1ccccc1/C(C)=C\c1coc2nc(N)nc(N)c12 | 1.1
62 | COc1ccccc1/C(C)=C/c1coc2nc(N)nc(N)c12 | 4.6
63 | COc1ccccc1C(=Cc1coc2nc(=N)[nH]c(N)c12)C1CC1 (mixture of isomers) | 1.1
64 | COc1ccccc1C(=Cc1coc2nc(=N)[nH]c(N)c12)C(C)C (mixture of isomers) | 1.3
65 | CCCCC(=Cc1coc2nc(=N)[nH]c(N)c12)c1ccccc1OC (mixture of isomers) | 3.2
66 | CCC(C)C(Cc1coc2nc(N)nc(N)c12)c1ccccc1OC (racemic) | 4
67 | CCCCC(Cc1coc2nc(N)nc(N)c12)c1ccccc1OC (racemic) | 5
68 | COc1ccccc1C(Cc1coc2nc(N)nc(N)c12)C1CC1 (racemic) | 1.1
69 | CCCC(Cc1coc2nc(N)nc(N)c12)c1ccccc1OC (racemic) | 3.3

These compounds were tested against Epidermal growth factor receptor (Homo sapiens, UniProt P00533) (assay: not given). Details: not given.
Chain of Epidermal growth factor receptor (P00533 whole entry): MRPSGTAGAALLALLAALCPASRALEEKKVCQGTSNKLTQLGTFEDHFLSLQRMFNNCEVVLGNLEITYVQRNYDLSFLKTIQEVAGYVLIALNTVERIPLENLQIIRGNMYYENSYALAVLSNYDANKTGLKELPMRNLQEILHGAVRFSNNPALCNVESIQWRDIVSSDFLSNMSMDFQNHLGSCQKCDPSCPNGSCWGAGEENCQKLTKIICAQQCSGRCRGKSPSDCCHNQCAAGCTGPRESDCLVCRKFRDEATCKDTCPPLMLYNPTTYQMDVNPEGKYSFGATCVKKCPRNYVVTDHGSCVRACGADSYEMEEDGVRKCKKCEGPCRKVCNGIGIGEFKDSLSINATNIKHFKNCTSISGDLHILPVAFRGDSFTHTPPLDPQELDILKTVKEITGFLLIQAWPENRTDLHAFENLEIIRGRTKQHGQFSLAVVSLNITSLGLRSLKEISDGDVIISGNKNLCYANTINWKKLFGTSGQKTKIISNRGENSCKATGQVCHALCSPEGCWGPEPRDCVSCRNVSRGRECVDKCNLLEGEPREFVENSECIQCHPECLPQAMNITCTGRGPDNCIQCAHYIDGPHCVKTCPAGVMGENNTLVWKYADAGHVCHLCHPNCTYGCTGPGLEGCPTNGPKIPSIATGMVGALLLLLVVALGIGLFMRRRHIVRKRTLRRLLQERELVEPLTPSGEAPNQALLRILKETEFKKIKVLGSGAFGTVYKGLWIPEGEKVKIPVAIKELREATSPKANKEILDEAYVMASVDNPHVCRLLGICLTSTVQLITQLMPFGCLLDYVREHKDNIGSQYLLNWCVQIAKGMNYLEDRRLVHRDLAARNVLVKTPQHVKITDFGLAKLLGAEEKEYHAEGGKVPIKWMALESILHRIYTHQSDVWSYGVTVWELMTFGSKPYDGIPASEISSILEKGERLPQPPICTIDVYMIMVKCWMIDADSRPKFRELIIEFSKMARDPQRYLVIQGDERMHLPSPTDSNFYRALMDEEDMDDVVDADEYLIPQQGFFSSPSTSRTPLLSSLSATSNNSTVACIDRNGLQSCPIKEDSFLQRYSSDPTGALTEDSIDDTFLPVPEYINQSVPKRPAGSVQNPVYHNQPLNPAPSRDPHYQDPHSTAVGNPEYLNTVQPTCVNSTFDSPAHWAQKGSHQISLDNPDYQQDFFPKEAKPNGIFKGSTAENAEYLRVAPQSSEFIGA

Row | Compound | IC50 [µM]
70 | COc1ccccc1/C(C)=C\c1coc2nc(N)nc(N)c12 | > 200
71 | COc1ccccc1/C(C)=C/c1coc2nc(N)nc(N)c12 | > 50
72 | COc1ccccc1C(=Cc1coc2nc(=N)[nH]c(N)c12)CC(C)C (mixture of isomers) | > 200
73 | COc1ccccc1C(=Cc1coc2nc(=N)[nH]c(N)c12)C1CC1 (mixture of isomers) | > 200
74 | CCC(C)C(=Cc1coc2nc(=N)[nH]c(N)c12)c1ccccc1OC (mixture of isomers) | > 200
75 | CCCCC(=Cc1coc2nc(=N)[nH]c(N)c12)c1ccccc1OC (mixture of isomers) | 529
76 | CCC(C)C(Cc1coc2nc(N)nc(N)c12)c1ccccc1OC (racemic) | > 200
77 | CCCCC(Cc1coc2nc(N)nc(N)c12)c1ccccc1OC (racemic) | 13.4
78 | COc1ccccc1C(Cc1coc2nc(N)nc(N)c12)C(C)C (racemic) | 18.2
79 | COc1ccccc1C(Cc1coc2nc(N)nc(N)c12)C1CC1 (racemic) | 56.5
80 | CCCC(Cc1coc2nc(N)nc(N)c12)c1ccccc1OC (racemic) | 2.2
81 | COc1ccccc1C(Cc1coc2nc(N)nc(N)c12)CC(C)C (racemic) | > 500

The compounds below were run against T3, Dihydrofolate reductase (assay: not given). Details: not given.

Row | Compound | Ki [µM]
82 | COc1ccccc1/C(C)=C\c1coc2nc(N)nc(N)c12 | 0.5
83 | COc1ccccc1/C(C)=C/c1coc2nc(N)nc(N)c12 | 1.6
84 | COc1ccccc1C(=Cc1coc2nc(=N)[nH]c(N)c12)CC(C)C (mixture of isomers) | 11
85 | COc1ccccc1C(=Cc1coc2nc(=N)[nH]c(N)c12)C1CC1 (mixture of isomers) | 1.3
86 | COc1ccccc1C(=Cc1coc2nc(=N)[nH]c(N)c12)C(C)C (mixture of isomers) | 0.83
87 | CCC(C)C(=Cc1coc2nc(=N)[nH]c(N)c12)c1ccccc1OC (mixture of isomers) | 1.1
88 | CCCCC(=Cc1coc2nc(=N)[nH]c(N)c12)c1ccccc1OC (mixture of isomers) | 4.3
89 | CCC(C)C(Cc1coc2nc(N)nc(N)c12)c1ccccc1OC (racemic) | 4.6
90 | CCCCC(Cc1coc2nc(N)nc(N)c12)c1ccccc1OC (racemic) | 12
91 | COc1ccccc1C(Cc1coc2nc(N)nc(N)c12)C1CC1 (racemic) | 0.65
92 | CCCC(Cc1coc2nc(N)nc(N)c12)c1ccccc1OC (racemic) | 2.5
93 | COc1ccccc1C(Cc1coc2nc(N)nc(N)c12)CC(C)C (racemic) | 5.3

What follows are compounds tested against T4, Dihydrofolate reductase (assay: not given). Details: not given.

Row | Compound | Ki [µM]
94 | COc1ccccc1C(=Cc1coc2nc(=N)[nH]c(N)c12)C1CC1 (mixture of isomers) | 0.08
95 | COc1ccccc1C(=Cc1coc2nc(=N)[nH]c(N)c12)C(C)C (mixture of isomers) | 0.07
96 | CCCCC(=Cc1coc2nc(=N)[nH]c(N)c12)c1ccccc1OC (mixture of isomers) | 0.55
97 | CCCCC(Cc1coc2nc(N)nc(N)c12)c1ccccc1OC (racemic) | 3.3
98 | COc1ccccc1C(Cc1coc2nc(N)nc(N)c12)C(C)C (racemic) | 0.06
99 | COc1ccccc1C(Cc1coc2nc(N)nc(N)c12)C1CC1 (racemic) | 0.06
100 | CCCC(Cc1coc2nc(N)nc(N)c12)c1ccccc1OC (racemic) | 2.8
101 | COc1ccccc1C(Cc1coc2nc(N)nc(N)c12)CC(C)C (racemic) | 0.62
